{
  "source": "patent US11845749B1",
  "about": "“Substituted pyrido[4′,3′:5,6]pyrazino[1,2-a]indoles as anticancer agents” (KING FAISAL UNIVERSITY, priority 2023, dated 2023)",
  "key": {"PC3 (prostate)": {"system": "PC3 (prostate)", "assay": "In vitro cytotoxic activity (MTT) assay, PC3", "format": "cell-based", "conditions": "Homo sapiens, Prostate cell, cells exposed for 96 hours, read-out: IC50, 50% inhibition of cell proliferation", "method": "(§1) Compounds 1-12 were screened for their in vitro cytotoxic activity utilizing a 3-(4,5-dimethyl-thiazol-2-yl)-2,5-diphenyltetrazolium bromide (MTT) assay against selected cancer human cell lines consisting of PC3 (prostate), HCT116 (colon), A375 (melanoma), H1299 (lung), MIAPaCa-2 (pancreas), HL60 (leukemia), MCF7 (breast), MDA-MB-231 (breast) (T. Mosmann, J. Immunol. Meth., 1983, 65, 55-63). The cells were cultured at 37° C. in RMPI1640 medium supplemented with 10% fetal bovine serum, 50 IU/mL penicillin, and 50 μg/mL streptomycin in a 5% CO2 incubator. All cells were sub-cultured 3 times/week by trypsinisation. Viable cells were seeded and allowed to adhere for 12 h before a test drug was added in 96-well plates at an initial density of 1.0×10^5 cells/mL. Tumour cell lines were separately exposed to various concentrations of the tested compounds followed by incubation at a temperature of 37° C. during 96 h inside a medium of fresh RMPI 1640. Cells were subsequently incubated at 37° C. using MTT at 0.5 mg/mL during 4 h. After removal of supernatant, formazan crystals were dissolved in isopropanol and the optical density was measured at 570 nm. CX-4945 was used as a positive control."}, "HCT116 (colon)": {"system": "HCT116 (colon)", "assay": "In vitro cytotoxic activity (MTT) assay, HCT116", "format": "cell-based", "conditions": "Homo sapiens, HCT-116, cells exposed for 96 hours, read-out: IC50, 50% inhibition of cell proliferation", "method": "as §1"}, "A375 (melanoma)": {"system": "A375 (melanoma)", "assay": "In vitro cytotoxic activity (MTT) assay, A375", "format": "cell-based", "conditions": "Homo sapiens, A-375, cells exposed for 96 hours, read-out: IC50, 50% inhibition of cell proliferation", "method": "as §1"}, "H1299 (lung)": {"system": "H1299 (lung)", "assay": "In vitro cytotoxic activity (MTT) assay, H1299", "format": "cell-based", "conditions": "Homo sapiens, NCI-H1299, cells exposed for 96 hours, read-out: IC50, 50% inhibition of cell proliferation", "method": "as §1"}, "MIAPaCa-2 (pancreas)": {"system": "MIAPaCa-2 (pancreas)", "assay": "In vitro cytotoxic activity (MTT) assay, MIAPaCa-2", "format": "cell-based", "conditions": "Homo sapiens, MIA PaCa-2, cells exposed for 96 hours, read-out: IC50, 50% inhibition of cell proliferation", "method": "as §1"}, "HL60 (leukemia)": {"system": "HL60 (leukemia)", "assay": "In vitro cytotoxic activity (MTT) assay, HL60", "format": "cell-based", "conditions": "Homo sapiens, HL-60, cells exposed for 96 hours, read-out: IC50, 50% inhibition of cell proliferation", "method": "as §1"}, "MCF7 (breast)": {"system": "MCF7 (breast)", "assay": "In vitro cytotoxic activity (MTT) assay, MCF7", "format": "cell-based", "conditions": "Homo sapiens, cells exposed for 96 hours, read-out: IC50, 50% inhibition of cell proliferation", "method": "as §1"}, "MDA-MB-231 (breast)": {"system": "MDA-MB-231 (breast)", "assay": "In vitro cytotoxic activity (MTT) assay, MDA-MB-231", "format": "cell-based", "conditions": "Homo sapiens, cells exposed for 96 hours, read-out: IC50, 50% inhibition of cell proliferation", "method": "as §1"}, "recombinant human CK2": {"biological_target": "T1, recombinant human CK2 (Homo sapiens, UniProt P68400)", "T1 construct": "purchased Millipore", "T1 sequence (P68400 whole entry)": "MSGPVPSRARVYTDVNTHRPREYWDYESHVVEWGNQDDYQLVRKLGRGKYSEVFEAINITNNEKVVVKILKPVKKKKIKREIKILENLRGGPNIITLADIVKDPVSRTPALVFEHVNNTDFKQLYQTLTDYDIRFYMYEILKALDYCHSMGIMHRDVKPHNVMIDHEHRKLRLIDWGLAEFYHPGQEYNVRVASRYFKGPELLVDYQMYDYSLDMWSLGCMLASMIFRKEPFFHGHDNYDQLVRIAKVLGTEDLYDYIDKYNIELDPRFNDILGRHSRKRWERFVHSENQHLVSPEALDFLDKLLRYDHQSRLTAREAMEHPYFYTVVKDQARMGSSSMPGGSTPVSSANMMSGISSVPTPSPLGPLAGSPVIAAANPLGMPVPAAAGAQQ", "T1 sequence (P67870 whole entry partner)": "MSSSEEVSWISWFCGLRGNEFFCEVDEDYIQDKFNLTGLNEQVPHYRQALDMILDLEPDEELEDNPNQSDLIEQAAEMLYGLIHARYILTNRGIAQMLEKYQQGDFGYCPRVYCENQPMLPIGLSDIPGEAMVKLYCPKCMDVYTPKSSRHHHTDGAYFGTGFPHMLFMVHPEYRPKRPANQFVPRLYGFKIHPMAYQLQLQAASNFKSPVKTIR", "assay": "CK2 Kinase Assay (33P-ATP, filter plate)", "format": "biochemical", "conditions": "final ATP concentration 15 μM, 10 min at 30° C.; read-out: protein kinase CK2 IC50", "method": "CK2 Kinase Assay was conducted using the protocol as described in Pierre F. et al; J. Med. Chem. 2011, 54, 635-654. The tested compounds in aqueous solution were added at a volume of 10 μL to a reaction mixture comprising 10 μL of assay dilution buffer (ADB; 20 mM MOPS, pH 7.2, 25 mM β-glycerol phosphate, 5 mM EGTA, 1 mM sodium orthovanadate, and 1 mM dithiothreitol), 10 μL of substrate peptide (RRRDDDSDDD, dissolved in ADB at a concentration of 1 mM), 10 μL of recombinant human CK2 (RRfββ-holoenzyme, 25 ng dissolved in ADB; Millipore). Reactions were initiated by the addition of 10 μL of ATP solution (90% 75 mMMgCl2, 75 μM ATP (final ATP concentration:15 μM) dissolved in ADB; 10% [γ-33P] ATP (stock 1mCi/100 μL; 3000 Ci/mmol (Perkin-Elmer) and maintained for 10 min at 30° C. The reactions were quenched with 100 μL of 0.75% phosphoric acid and then transferred to and filtered through a phosphor cellulose filter plate (Millipore). After washing each well five times with 0.75% phosphoric acid, the plate was dried under vacuum for 5 min and, following the addition of 15 μL of scintillation fluid to each well, the residual radioactivity was measured using a Wallac […]. The IC50 values were derived from eight concentrations of test inhibitors."}},
  "data": [
    {"smiles": "O=C(O)c1ccc2c(c1)cc1c(Nc3ccc(Cl)cc3)nc3ccncc3n12", "note": "[Compound 1, 6-((4-chlorophenyl)amino)pyrido[4′,3′:5,6]pyrazino[1,2-a]indole-9-carboxylic acid]", "values": [
      {"measurement": "IC50", "setting": "PC3 (prostate)", "result": 1600, "unit": "nM"},
      {"measurement": "IC50", "setting": "HCT116 (colon)", "result": 1900, "unit": "nM"},
      {"measurement": "IC50", "setting": "A375 (melanoma)", "result": 2500, "unit": "nM"},
      {"measurement": "IC50", "setting": "H1299 (lung)", "result": 3100, "unit": "nM"},
      {"measurement": "IC50", "setting": "MIAPaCa-2 (pancreas)", "result": 900, "unit": "nM"},
      {"measurement": "IC50", "setting": "HL60 (leukemia)", "result": 2800, "unit": "nM"},
      {"measurement": "IC50", "setting": "MCF7 (breast)", "result": 7800, "unit": "nM"},
      {"measurement": "IC50", "setting": "MDA-MB-231 (breast)", "result": 6100, "unit": "nM"},
      {"measurement": "IC50", "setting": "recombinant human CK2", "result": 12, "unit": "nM"}
    ]}
  ]
}
